Reference: patent publication US20250057928A1, “VACCINE COMPOSITION FOR INDUCING ANTI-IL-23 ANTIBODY” (OSAKA UNIVERSITY, priority 2021, published 2025)
Where no end group is shown, it is not given here.

Test system: IL-17 production when mouse splenocytes were stimulated with rhIL-23
Test: Neutralization activity of IgG purified from monkey antiserum: IL-17 production of mouse splenocytes stimulated with rhIL-23
Type: cell-based
Details: 300 μg/mL of IgG derived from monkey antiserum (6 weeks)
Protocol: AJP001 conjugated peptide (SEQ ID NOs: 6-37) was dissolved in physiological saline, mixed with an equal amount of 2% Alhydrogel (invivogen), and this was intradermally administered to BALB/c mice (female, 6-week-old, N=5-6) at 0.5 mg/body 3 times at two-week intervals. Blood was collected before administration and at the time point of 6 weeks after initial administration, and the antibody titer (GMT) to each epitope sequence and binding ability to recombinant human IL-23 protein (rhIL-23) (Peprotech) were measured by the ELISA method (same method as in Example 1). The binding to rhIL-23 was evaluated by a binding ratio to normal serum by calculating the ratio of the absorbance of a well added with normal mouse serum to the absorbance of a well added with antiserum derived from a mouse administered with each AJP001 conjugated peptide (SEQ ID NOs: 6-37). In addition, the neutralization activity of mouse antiserum was evaluated using an action on IL-17 production in rhIL-23 stimulated mouse splenocyte as an index. […]
Then, IgG was purified using Protein G HP spin Trap (GE Healthcare) from the monkey antiserum obtained 6 weeks after the initial administration, and the action on IL-17 production when mouse splenocytes were stimulated with rhIL-23 was evaluated (same method as in Example 5).

Substance: SEQ ID NO 6: AJP001-Ahx-B cell epitope peptide conjugate; epitope SPSQPWQR (human 151-158) (not fully specified (N-terminus); listed as Homo sapiens)
- IL-17 production: suppressed
